{"source": "patent US20140161917A1", "about": "“Use of Nesprin-2 Expression Modulators and Compositions Thereof” (Avon Products, Inc., priority 2012, published 2014)", "test_system": "Nesprin-2 (SYNE2)", "test": "Assay for upregulation of Nesprin-2 mRNA (Panomics Quantigene multiplex branched DNA assay) in fibroblasts", "type": "cell-based, human", "details": "24 hours, vs vehicle control", "protocol": "A variety of botanical extract and synthetic compounds were tested for the ability to up-regulate […]-2 (SYNE2), Gene Accession Number-NM-182914.2. Normal human dermal fibroblasts or keratinocytes were cultured in 96-well tissue culture treated plates, containing appropriate culture medium. Stock solutions of actives were made in an appropriate vehicle (water/Ethanol/DMSO). Cells were treated with test material or respective vehicle control diluted in growth medium for 24 hours in a humidified 37° C. incubator with 10% CO2. The concentrations of each extract are provided based on the dry weight of the given plant extract, by which is meant the weight of the extract after volatile extraction solvents have been removed. After incubation, growth medium from each plate was removed and 100 μL of lysis buffer was added to the wells and placed in 37° C. incubator with 10% CO2 for 30 minutes. At the end of incubation, the cells are collected in freezer plates and placed in -80° C. freezer, until analysis. Changes in mRNA for after treatment were analysed using Panomics Quantigene multiplex assay that employs a branched DNA technology, following manufacturer's instructions (Affymetrix, CA). Percent increase (up-regulation) in mRNA for the […]-2 was calculated by comparing the test results to the control.", "data": [{"smiles": "C[C@@H]1NC(=O)N[C@@H]1CCCCCC(=O)O", "note": "[D-Desthiobiotin]", "values": [{"measurement": "Nesprin-2 (percent up-regulation in mRNA, scaled score)", "setting": "0.0001%", "result": "++++ (0.001%, (>80 (++++))"}, {"measurement": "Nesprin-2 (percent up-regulation in mRNA, scaled score)", "setting": "0.001%", "result": "++++ (0.001%, (>80 (++++))"}]}]}
